{"source": "paper PMC8874540", "about": "“Pyrazole and Triazole Derivatives as Mycobacterium tuberculosis UDP-Galactopyranose Inhibitors” (Pharmaceuticals, 2022)", "note": "Counter-ions that a name gives are not always drawn.", "data": [{"target": "T1, UDP-galactopyranose mutase (MtbUGM) (Mycobacterium tuberculosis, UniProt P9WIQ1)", "T1 construct": "gene glf; His6-tagged MtbUGM from pET-29b(+)", "T1 sequence (P9WIQ1 whole entry)": "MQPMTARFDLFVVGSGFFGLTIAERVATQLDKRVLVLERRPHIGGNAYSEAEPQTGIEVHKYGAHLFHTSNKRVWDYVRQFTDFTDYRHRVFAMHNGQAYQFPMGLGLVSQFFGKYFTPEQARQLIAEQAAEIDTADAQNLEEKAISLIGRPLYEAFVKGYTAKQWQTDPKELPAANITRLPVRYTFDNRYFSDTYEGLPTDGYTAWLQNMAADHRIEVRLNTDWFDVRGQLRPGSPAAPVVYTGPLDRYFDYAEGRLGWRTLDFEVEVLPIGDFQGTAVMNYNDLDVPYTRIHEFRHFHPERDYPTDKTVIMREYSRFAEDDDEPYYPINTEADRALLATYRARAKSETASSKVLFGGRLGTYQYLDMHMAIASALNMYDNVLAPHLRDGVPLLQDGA", "experiment": "HPLC assay, % inhibition at […], […] UDP-Galf", "assay_type": "biochemical", "values": [{"compound": "Cc1nn(-c2ccccc2)c(O)c1C(=O)c1ccc(Cl)cc1", "note": "[DA1, 4-p-chlorobenzoyl-1-phenyl-3-methyl-5-pyrazol]", "HPLC assay, % inhibition at 60 μM, 15 μM UDP-Galf": "DA1 and DA2 showed comparable inhibition to that of MS208"}, {"compound": "O=C(CCc1cn(-c2ccc(Cl)cc2)nn1)Oc1ccc(Cl)cc1", "note": "[DA11]", "HPLC assay, % inhibition at 60 μM, 15 μM UDP-Galf": "The triazolo analogues, DA11-DA13, showed comparable % inhibition to that of MS208."}, {"compound": "Cc1nn(-c2ccc(Cl)cc2)c(O)c1C(=O)c1ccccc1", "note": "[DA2, 4-benzoyl-1-p-chlorophenyl-3-methyl-5-pyrazol]", "HPLC assay, % inhibition at 60 μM, 15 μM UDP-Galf": "DA1 and DA2 showed comparable inhibition to that of MS208"}, {"compound": "Cc1nn(-c2ccc(Cl)cc2)c(O)c1S(=O)(=O)c1ccc(Cl)cc1", "note": "[DA5, 4-p-chlorobenzosulfonyl-1-p-chlorophenyl-3-methyl-5-pyrazol hydrochloride]", "HPLC assay, % inhibition at 60 μM, 15 μM UDP-Galf": "The sulfonyl derivative, DA5, showed comparable % inhibition to that of the carbonyl derivative MS208."}, {"compound": "OC(c1ccc(Cl)cc1)c1cn(-c2ccc(Cl)cc2)nn1", "note": "(stereo not drawn) [DA12, [1-(4-chlorophenyl)-1H-1,2,3-triazol-4-yl]-4-chlorophenylmethanol]", "HPLC assay, % inhibition at 60 μM, 15 μM UDP-Galf": "The triazolo analogues, DA11-DA13, showed comparable % inhibition to that of MS208."}, {"compound": "O=C(c1ccc(Cl)cc1)c1cn(-c2ccc(Cl)cc2)nn1", "note": "[DA13, 4-p-chlorobenzoyl-1-p-chlorophenyl-1H-1,2,3-triazole]", "HPLC assay, % inhibition at 60 μM, 15 μM UDP-Galf": "The triazolo analogues, DA11-DA13, showed comparable % inhibition to that of MS208."}, {"compound": "COC(=O)c1ccc(C(=O)Oc2cc(C)nn2-c2ccc(Cl)cc2)cc1", "note": "[DA8]", "HPLC assay, % inhibition at 60 μM, 15 μM UDP-Galf": "two of these O-acyl analogues, DA8 and DA10 still showed comparable % inhibition to MS208"}, {"compound": "Cc1nn(-c2ccc(Cl)cc2)c(O)c1C(=O)c1ccc(Cl)cc1", "note": "[MS208, 4-p-chlorobenzoyl-1-p-chlorophenyl-3-methyl-5-pyrazol]", "HPLC assay, % inhibition at 60 μM, 15 μM UDP-Galf": "DA1 and DA2 showed comparable inhibition to that of MS208"}]}, {"target": "T1, UDP-galactopyranose mutase (MtbUGM)", "experiment": "HPLC kinetic assay of UDP-Galf to UDP-Galp, global fit", "assay_type": "biochemical", "units": {"Ki": "µM"}, "values": [{"compound": "Cc1cc(OC(=O)c2ccc(S(N)(=O)=O)cc2)n(-c2ccc(Cl)cc2)n1", "note": "[DA10, 4-Sulfamoyl-[3-methyl-1-p-chlorophenyl-1H-pyrazol-5-yl] benzoic acid ester]", "Ki": "51 ± 4"}]}]}
